Read-outs that look alike come from different tables or passages of the source.
Experiments:
[1] = Plasma stability, human plasma; assay type: in vitro ADME
Experimental: Then, 37.8 μL of stock solution was added to 1400 μL of human plasma, maintained at 37°C. Aliquots (50 μL) withdrawn at 0, 1, 4, 8, and 24 h were analyzed by HPLC. […] The supernatant was transferred to an autosampler vial and 1 μL was injected onto LC-MS system. The samples were analyzed with an Agilent 1260 HPLC (Agilent Technologies) coupled to ESI-TOF Agilent 6530 (Agilent Technologies) with Agilent Jet Stream Technology. Samples were separated on a Waters ACQUITY UPLC CSH Phenyl-Hexyl (100 × 2.1, 130 Å, 1.7 μm) at a flow rate 0.3 ml/min. […] The mass spectrometry instrument was operated in a negative ion mode with a voltage of +3.00 kV applied to the capillary. The temperature, the flow rate of the nitrogen drying gas, the pressure of the nitrogen nebulizing gas, and the flow rate of the sheath gas were set at 325°C, 10 l/min, 40 psi, 390°C, and 11 l/min, respectively. Results are represented as a percentage of a compound remaining in spiked human plasma.

HepG2 cells [2] = assay: Hepatotoxicity, XTT viability after 72 h; assay type: cell-based; conditions: Homo sapiens; 72 h, HepG2, 5.5 mM glucose; read-out: Hepatotoxicity IC50, 5.5 mM glucose
Experimental: Then, the cell viability (XTT assay) and reactive oxygen species (ROS) induction were evaluated.
(§1) (A) Hepatotoxicity provoked by compound 4 was assessed after 72 h incubation of HepG2 cells in low glucose medium (5 mM) in the presence of compound 4 (0.25–100 μM). (B) Mitochondrial toxicity was determined after 24 h incubation of HepG2 cells in either high glucose medium (25 mM) or galactose medium (10 mM) in the presence of compound 4 (2.5–150 μM). Cell viabilities were recorded in triplicates in three independent experiments and expressed as percentage of vehicle control ± SD and IC50 values were determined by GraphPad Prism software using following equation: Y = Bottom + (Top–Bottom)/(1 + 10ˆ((LogIC50-X)^∗HillSlope)), where IC50 is the concentration of compound 4 that inhibits cell viability half way between Bottom and Top plateaus, X is compound 4 concentration and HillSlope describes the steepness of the family of curves. […] (C) Concentration-dependent effect on ROS level. HepG2 cells were treated with compound 4 (0.25–100 μM) for 72 h, and then the intracellular level of total ROS in relative fluorescence units (RFU) was detected. The data are presented as the mean ± SD for at least three independent experiments and each experiment was carried out in triplicate. Final concentration of DMSO in samples was 1%. […] Single asterisks (^∗) indicate a significant difference (P < 0.05) compared to 1% DMSO control (one-way ANOVA with Dunnett’s post-test).
(§2) HepG2 cells (ATCC®, United Kingdom) were grown in complete Minimal Essential Medium (EMEM) (5.5 mM glucose) medium, supplemented with 10% (v/v) fetal calf serum, 200 μg/mL of streptomycin, 200 U/mL of penicillin G and 4 mM glutamine. They were cultured under a humidified atmosphere containing 5% CO2 at 37°C.
(§3) The cytotoxicity of the tested compounds was assessed with use of XTT cell proliferation kit II (Roche Diagnostics GmbH, Mannheim, Germany) according to the manufacturer’s instructions. Briefly HepG2 cells were seeded in a 96-well plate at a density of 22,000 cells per well. After 24 h, the tested neurosteroids in a concentration range from 0.5 to 200 μM were added to the culture media and incubated for 72 h before the XTT dye was added. Mitochondrial toxicity was assessed in HepG2 cells using glucose and galactose conditioned media and XTT assay as a read out for cell viability. In brief, cells were seeded onto 96 well, clear bottom tissue culture plates at a density of 22,000 cells/well and left overnight to attach. Six hours prior to the neurosteroids treatment the media was replaced with 100 μL DMEM media containing either glucose (25 mM glucose; 1 mM pyruvate; 2 mM glutamine, 10% FBS) or galactose (10 mM galactose, 1 mM pyruvate, 6 mM glutamine, 10% FBS). After that, the tested neurosteroids in a concentration range from 0.5 to 200 μM were added in the fresh appropriate assay medium (glucose or galactose) and incubated for 24 h before the XTT dye was added. The XTT absorbance was recorded at 495 nm after 1 h incubation with the dye. Compounds were dissolved in DMSO to produce the stock solutions at the concentration of 10 mM, with exception of PAG, 1, 6 (5 mM), and 11 (2.5 mM). Results were expressed as percentages of change in viability compared to appropriate DMSO control. IC50 values were determined by GraphPad Prism version 5.00 for Windows (GraphPad Software, La Jolla, CA, United States). All experiments were done in triplicates in three independent experiments to check the reproducibility.

HepG2 cells [3] = assay: Mitotoxicity, XTT viability in glucose vs galactose medium; conditions: for Glu/Gal index (fold change): 24 h, HepG2, index higher than 3 indicates potential mitochondrial toxicity; for IC50: Homo sapiens, HepG2, 24 h
Experimental: as §1, §2, §3

GluN1/GluN2B receptors = target: T1, GluN1/GluN2B receptors (Rattus norvegicus, UniProt P35439+Q00960); assay: Patch-clamp inhibition of glutamate responses of GluN1/GluN2B receptors in transfected HEK293 cells; assay type: cell-based
T1 construct: expressed in transfected cells; host or cells: HEK293

HepG2 cells [4] = assay: ROS induction (CM-H2DCFDA); assay type: cell-based; conditions: Homo sapiens, HepG2, 72 h; read-out: ROS induction EC50
Experimental: as §1
The effect of neurosteroids on oxidative stress was determined using general oxidative stress indicator CM-H2DCFDA (Thermo Fisher Scientific, Waltham, MA, United States) according to the manufacturer’s instructions. Briefly HepG2 cells were seeded in a 96-well plate at a density of 13,500 cells per well. After 24 h, the tested neurosteroids were added to the culture media and incubated for 72 h. Subsequently, cells were washed with HBSS, treated with 100 μL of 1 μM CM-H2DCF-DA solution in HBSS and incubated for 1 h in the dark at 37°C. Finally, cells were washed three times with HBSS and the fluorescence was measured using 495 excitation and 527 emission in fluorescence microplate reader (Cytation 3, Winooski, VT, United States). IC50 index values were determined by GraphPad Prism version 5.00 for Windows (GraphPad Software, La Jolla, CA, United States).

[5] = Plasma stability, rat plasma; assay type: in vitro ADME
[6] = read-out: Mitotoxicity IC50, 10 mM galactose
[7] = read-out: Mitotoxicity IC50, 25 mM glucose
[8] = as repeated in Table 2, read-out: IC50
[9] = current responses to glutamate, HEK293, IC50 from single steroid dose, Hill coefficient fixed at 1.2, read-out: IC50 ± SD

T1 sequence (Q00960 27-1482, other chains not shown): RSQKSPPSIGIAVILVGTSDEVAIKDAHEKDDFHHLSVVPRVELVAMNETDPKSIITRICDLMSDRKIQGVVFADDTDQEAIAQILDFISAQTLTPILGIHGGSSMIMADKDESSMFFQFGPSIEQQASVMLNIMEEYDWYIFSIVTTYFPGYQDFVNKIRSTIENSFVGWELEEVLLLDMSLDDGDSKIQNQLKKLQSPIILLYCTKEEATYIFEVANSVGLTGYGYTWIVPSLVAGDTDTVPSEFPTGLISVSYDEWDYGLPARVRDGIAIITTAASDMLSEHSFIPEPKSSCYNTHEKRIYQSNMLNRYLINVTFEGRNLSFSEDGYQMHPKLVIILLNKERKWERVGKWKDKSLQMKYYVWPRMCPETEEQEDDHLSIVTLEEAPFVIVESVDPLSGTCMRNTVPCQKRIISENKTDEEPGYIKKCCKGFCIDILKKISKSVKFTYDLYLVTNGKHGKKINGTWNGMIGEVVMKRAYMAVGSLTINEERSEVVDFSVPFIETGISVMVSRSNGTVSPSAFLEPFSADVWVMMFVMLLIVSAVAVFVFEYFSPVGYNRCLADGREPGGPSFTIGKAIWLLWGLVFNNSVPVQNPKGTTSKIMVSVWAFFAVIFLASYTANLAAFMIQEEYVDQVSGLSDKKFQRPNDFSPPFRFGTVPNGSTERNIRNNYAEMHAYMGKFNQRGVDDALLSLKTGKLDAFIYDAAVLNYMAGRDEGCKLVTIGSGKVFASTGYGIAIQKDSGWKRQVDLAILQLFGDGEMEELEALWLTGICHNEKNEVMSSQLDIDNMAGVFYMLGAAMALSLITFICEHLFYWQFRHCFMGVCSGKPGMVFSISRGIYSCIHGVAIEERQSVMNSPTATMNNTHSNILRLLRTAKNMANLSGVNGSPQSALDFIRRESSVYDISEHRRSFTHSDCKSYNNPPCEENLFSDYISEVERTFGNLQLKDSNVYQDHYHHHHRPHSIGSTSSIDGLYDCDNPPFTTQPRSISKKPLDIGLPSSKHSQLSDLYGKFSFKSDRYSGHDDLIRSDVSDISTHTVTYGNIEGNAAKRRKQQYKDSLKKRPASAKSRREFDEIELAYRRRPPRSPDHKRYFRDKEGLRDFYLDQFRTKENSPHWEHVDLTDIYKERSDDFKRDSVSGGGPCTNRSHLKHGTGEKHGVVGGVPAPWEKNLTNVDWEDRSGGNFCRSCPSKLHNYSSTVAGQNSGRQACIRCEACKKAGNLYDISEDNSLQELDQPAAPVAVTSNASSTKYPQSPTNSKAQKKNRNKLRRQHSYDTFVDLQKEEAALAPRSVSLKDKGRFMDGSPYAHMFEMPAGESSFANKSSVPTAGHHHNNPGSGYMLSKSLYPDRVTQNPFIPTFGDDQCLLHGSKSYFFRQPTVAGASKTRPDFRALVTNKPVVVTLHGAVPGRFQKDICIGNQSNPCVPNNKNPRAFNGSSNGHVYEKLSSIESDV

Compound	remaining at 8 h, 42.1 μg/mL ([1]; human plasma, 8 h, 37°C, read-out: Plasma stability (% remaining after 8 h), Human)	IC50 (HepG2 cells [2])	Glu/Gal index (fold change) (HepG2 cells [3])	IC50 (HepG2 cells [3]; [6])	IC50 (HepG2 cells [3]; [7])	ΔGexp (GluN1/GluN2B receptors)	IC50 (GluN1/GluN2B receptors; [8])	IC50 ± SD (GluN1/GluN2B receptors; current responses to glutamate, HEK293, IC50 from single steroid dose, Hill coefficient fixed at 1.2)	IC50 (GluN1/GluN2B receptors; [9])	EC50 (HepG2 cells [4])	remaining at 8 h, 42.1 μg/mL ([5]; rat plasma, 8 h, 37°C, read-out: Plasma stability (% remaining after 8 h), Rat)	remaining at 8 h, 42.1 μg/mL ([1]; human, plasma)	remaining at 8 h, 42.1 μg/mL ([5]; rat, plasma)	melting point
C[C@@]12CCC[C@H]1[C@@H]1CC[C@@H]3C[C@H](NC(=O)C(=O)O)CC[C@]3(C)[C@H]1CC2 [Compound 1, 2-(((3R,5R,8S,9S,10S,13S,14S)-10,13-dimethylhexadecahydro-1H-cyclopenta[a]phenanthren-3-yl)amino)-2-oxoacetic acid]	100%	42 ± 7 µM	1.97	72 ± 9 µM	142 ± 12 µM	-6.39 kcal/mol	21.7 µM	least inhibitory activity	21.7 ± 4.8 µM	52 ± 6 µM	100%			
C[C@@]12CCC[C@H]1[C@@H]1CC[C@@H]3C[C@H](NC(=O)CC(=O)O)CC[C@]3(C)[C@H]1CC2 [Compound 2, 3-(((3R,5R,8S,9S,10S,13S,14S)-10,13-dimethylhexadecahydro-1H-cyclopenta[a]phenanthren-3-yl)amino)-3-oxopropanoic acid]		148 ± 14 µM	1.32	174 ± 12 µM	> 200 µM	-6.59 kcal/mol				165 ± 18 µM		98%	100%	
C[C@@]12CCC[C@H]1[C@@H]1CC[C@@H]3C[C@H](NC(=O)CCC(=O)O)CC[C@]3(C)[C@H]1CC2 [Compound 3, 4-(((3R,5R,8S,9S,10S,13S,14S)-10,13-dimethylhexadecahydro-1H-cyclopenta[a]phenanthren-3-yl)amino)-4-oxobutanoic acid]		> 200 µM		> 200 µM	> 200 µM	-6.78 kcal/mol	11.2 µM		11.2 ± 7.2 µM	> 200 µM		98%	100%	
C[C@@]12CCC[C@H]1[C@@H]1CC[C@@H]3C[C@H](NC(=O)CCCC(=O)O)CC[C@]3(C)[C@H]1CC2 [Compound 4, 5-(((3R,5R,8S,9S,10S,13S,14S)-10,13-dimethylhexadecahydro-1H-cyclopenta[a]phenanthren-3-yl)amino)-5-oxopentanoic acid]		4 ± 0.2 µM		11 ± 3 µM	48 ± 6 µM	-6.92 kcal/mol	8.9 µM		8.9 ± 1 µM	7 ± 2 µM		96%	99%	
CC(C)(C)OC(=O)N[C@@H](CC(=O)O)C(=O)N[C@@H]1CC[C@@]2(C)[C@H](CC[C@H]3[C@@H]4CCC[C@@]4(C)CC[C@@H]32)C1 [Compound 5, (S)-3-((tert-butoxycarbonyl)amino)-4-(((3R,5R,8S,9S,10S,13S,14S)-10,13-dimethylhexadecahydro-1H-cyclopenta[a]phenanthren-3-yl)amino)-4-oxobutanoic acid]		> 200 µM		> 200 µM	> 200 µM	-7.22 kcal/mol	5.4 µM		5.4 ± 2.3 µM	> 200 µM		100%	93%	
CC(C)(C)OC(=O)N[C@@H](CCC(=O)O)C(=O)N[C@@H]1CC[C@@]2(C)[C@H](CC[C@@H]3[C@@H]4CCC[C@@]4(C)CC[C@@H]32)C1 [Compound 7, (S)-4-((tert-butoxycarbonyl)amino)-5-(((3R,5R,8R,9S,10S,13S,14S)-10,13-dimethylhexadecahydro-1H-cyclopenta[a]phenanthren-3-yl)amino)-5-oxopentanoic acid]		> 200 µM		> 200 µM	> 200 µM	-7.22 kcal/mol	5.4 µM		5.4 ± 2.4 µM	> 200 µM		97%	94%	
C[C@@]12CCC[C@H]1[C@@H]1CC[C@@H]3C[C@H](NC(=O)[C@@H](N)CCC(=O)O)CC[C@]3(C)[C@H]1CC2 [Compound 8, (S)-4-amino-5-(((3R,5R,8S,9S,10S,13S,14S)-10,13-dimethylhexadecahydro-1H-cyclopenta[a]phenanthren-3-yl)amino)-5-oxopentanoic acid]		65 ± 5 µM	1.04	94 ± 14 µM	98 ± 11 µM	-8.02 kcal/mol	1.4 µM		1.4 ± 0.2 µM	71 ± 9 µM		98%	95%	
CC(C)(C)OC(=O)N[C@@H](CC(=O)N[C@@H]1CC[C@@]2(C)[C@H](CC[C@H]3[C@@H]4CCC[C@@]4(C)CC[C@@H]32)C1)C(=O)O [Compound 9, (S)-2-((tert-butoxycarbonyl)amino)-4-(((3R,5R,8S,9S,10S,13S,14S)-10,13-dimethylhexadecahydro-1H-cyclopenta[a]phenanthren-3-yl)amino)-4-oxobutanoic acid]		> 200 µM		> 200 µM	> 200 µM	-7.33 kcal/mol	4.5 µM		4.5 ± 0.6 µM	> 200 µM		100%	99%	154 to 157 °C
CS(=O)(=O)Nc1ccc([N+](=O)[O-])cc1Oc1ccccc1 [Nimesulide, nimesulide, reference compound]		2.2 ± 0.3 µM	3.88	18 ± 4 µM	72 ± 8 µM					3.5 ± 0.5 µM				

Reference: paper PMC6240685, “Strong Inhibitory Effect, Low Cytotoxicity and High Plasma Stability of Steroidal Inhibitors of N-Methyl-D-Aspartate Receptors With C-3 Amide Structural Motif” (Frontiers in Pharmacology, 2018)
